The values below come from patent US20010019832A1, “Methods for identification using U0126” (priority 2000, published 2001).

Experiment [1] concerns L6 cells. Briefly: Glucose uptake rate in L6 cells. Type of experiment: cell-based, rat. The settings on record: 5 mM glucose; for Glucose uptake rate: U0126 10 μM or PD98059 10 μM for 20 h, insulin 176 nM 1 h before. As to the method:
(§1) Glucose uptake was determined as described by Hundal et al. (1994) Biochem. J. 297: 289-295. Briefly, after incubation with insulin for one hour, cell monolayers were rinsed with glucose-free PBS. Glucose uptake was quantified by incubating the cells in the presence of 1 μCi/ml ^3H-2-deoxy-glucose in PBS for 8 min. Uptake of 2-deoxy-glucose was terminated by rapidly aspirating the medium, followed by two successive washes of cell monolayers with ice cold PBS. The cells were lysed in 0.5 M NaOH, followed by liquid scintillation counting. Rates of transport were normalized for protein content in each well.
Glucose uptake rate in L6 cells, in the presence of 5 mM glucose, was determined. The cells were incubated in serum-free medium supplemented with U0126 (10 μM), PD98059 (10 μM) or wortmannin (100 nM) for 20 h. Insulin (176 nM) was added 1 h before the determination of glucose uptake rate. Glucose uptake was determined as described above.

Experiment [2] concerns human skeletal muscle cells (hSkMC). Briefly: Glucose uptake rate in human skeletal muscle cells. Type of experiment: cell-based. The conditions noted are these: 5 mM glucose, insulin 176 nM or U0126 10 μM added 30 min before. How it is done: as §1
Glucose uptake rate in human skeletal muscle cells (hSkMC), in the presence of 5 mM glucose, was determined. The cells were incubated in serum-free medium (PromoCell) for 2 h. Insulin (176 nM) or U0126 (10 μM) were added 30 min before determination of glucose uptake rate.

Another experiment has as its system SH-SY5Y cells. Briefly: Glucose uptake rate in SH-SY5Y cells. Type of experiment: cell-based, human. The conditions noted are these: 5 mM glucose, U0126 10 μM or insulin 176 nM added 1 h before. As to the method: as §1
Glucose uptake rate in SH-SY5Y cells in the presence of 5 mM glucose was determined. The cells were incubated in serum-free medium over night. Approximately 20 h later U0126 (10 μM), wortmannin (100 nM) or insulin (176 nM) were added, 1 h before the determination of glucose uptake rate.

For experiment [3], the system named is L6 cells. Put plainly: Glucose oxidation in L6 cells (14CO2 trapping). The experiment is classed as cell-based, rat. The conditions noted are these: 5 mM glucose; for Glucose oxidation: insulin 176 nM or U0126 10 μM added 1 h before. The source says:
(§2) The principle of the used glucose/free fatty acid, (FFA) oxidation assay is based on the fact that one of the final products along metabolic pathways of these two substrates is carbon dioxide. Since the substrates are uniformly ^14C labeled, the radioactivity in carbon dioxide trap is a direct measure of metabolic activity in studied cells (Rodbell, M. (1964) J. Biol. Chem. 239: 375-380).
(§3) As further described in International Patent Application No. PCT/SE00/02680, filed Dec. 27, 2000, cells were cultivated until sub-confluence in T-25 Costar flasks. Prior to the experiment, the cells were deprived of serum for 6 hours in DMEM medium containing 5 mM glucose. 3 ml of medium supplemented with (U-^14C)-glucose or (U^14C)-palmitic acid (0.2 μCi/ml) were added to each flask. A filter paper (1.5×5.5 cm) soaked in hyamine solution was rolled up, blotted on a paper towel to remove excess of fluid, and placed carefully into the tube of the device described in International Patent Application No. PCT/SE00/02680. The tube was mounted in the flasks, the screw caps were tightened and cells were incubated at 37° C. for a suitable time period. The reaction was terminated by adding sulfuric acid to the culture medium and the cells were incubated for additional 60 min. The filter paper was removed, cut into small pieces and transferred to scintillation vials. Methanol (0.2 ml) was added to each vial to increase the solubility of hyamine-CO2 in the scintillation fluid. Finally the radioactivity was measured. The remaining cells were washed briefly with ice cold PBS, solubilized with 1 M KOH and the protein content was determined by the Bradford method (Bradford, M. M. (1976) Anal. Biochem. 72: 248-254).
Glucose oxidation in L6 cells in the presence of 5 mM glucose was determined as described in “Experimental Methods”. One hour prior to determination of glucose oxidation, insulin or U0126 was added to a concentration of 176 nM or 10 μM, respectively.

In experiment [4] the test system is L6 cells. Briefly: Palmitate oxidation in L6 cells (14CO2 trapping). Type of experiment: cell-based, rat. The conditions noted are these: for Palmitate oxidation in the presence of 5 mM glucose: data not shown.
Excerpt: as §2, §3
In a cell system, insulin resistance can be provoked experimentally by raising the concentrations of glucose, fat or both in the medium, or by treating the cells with the cytokine Tumor Necrosis Factor alpha (TNF alpha) before insulin stimulation. […] Palmitate oxidation was determined as described in “Experimental methods”. […]

In the next experiment the test system is PKB. Put plainly: PKB activity in L6 cells. The conditions noted are these: differentiated L6 cells, incubated 10 min. Type of experiment: cell-based, rat.
The next experiment has as its system INS-1 cells. The conditions noted are these: U0126 10 μM, 24 hours. How it is done: Insulin secretion in INS-1 cells was determined. INS-1 cells were seeded in 24-well plates. Thirty minutes before assay the glucose concentration was decreased to 2.8 mM. After the incubation in low glucose medium, glucose (up to 16 mM) or U0126 (10 μM) were added. After 24 hours, samples were collected and analyzed in the rat insulin ELISA.

The next experiment relates to MEK½. The settings on record: Favata et al. 1998; cited from earlier work.
For another experiment, the system named is AP-1. The settings on record: Duncia et al. 1998; cited from earlier work.

Consider `N#CC(=C(N)Sc1ccccc1N)C(C#N)=C(N)Sc1ccccc1N` [U0126, 1,4-diamino-2,3-dicyano-1,4-bis [2-aminophenylthio] butadiene], for which the “Glucose uptake rate, U0126 and insulin incubated together” value in the experiment on L6 cells [1] (U0126 10 μM 20 h plus insulin 176 nM 1 h) is reported as “no further increase compared to U0126 alone”. Further, the Glucose uptake rate result in the experiment on L6 cells [1] was “increased glucose uptake”; in experiment [2], “increase glucose uptake”; with SH-SY5Y cells, “increased glucose uptake”. In addition, in the experiment with L6 cells [3] (U0126 10 μM plus insulin 176 nM), the “Glucose oxidation, U0126 and insulin incubated together” value is on record as “A small increase”. Besides, the Glucose oxidation entry with L6 cells [3] is “increased glucose oxidation”. For the same compound, the “Palmitate oxidation in the presence of 5 mM glucose” value in the experiment on L6 cells [4] is “decreased palmitate oxidation”. Besides, the “Palmitate oxidation during insulin resistant conditions” value in the experiment with L6 cells [4] (12 mM glucose and 480 μM palmitate for 20 hours, U0126 10 μM 1 h before) is listed as “decreased palmitate oxidation”. For the same compound, the PKB activity result in the experiment on PKB was “no effect”. For the same compound, the Insulin secretion entry with INS-1 cells is “increased insulin secretion”. The “Inhibition of MEK½” value in the experiment with MEK½ is “specifically inhibits MEK½ in both the inactive and active forms”. Moreover, the “Inhibition of AP-1 transactivation” value in the experiment on AP-1 is listed as “inhibitor of AP-1 transactivation”.
For “insulin: Bovine insulin purchased from Gibco Laboratories”, the results for the Glucose uptake rate result (in the experiment with L6 cells [1]; in [2]; in the experiment on SH-SY5Y cells) were “increased glucose uptake”, “increase glucose uptake” and “increased glucose uptake”, respectively. Moreover, the Glucose oxidation result in the experiment with L6 cells [3] is “increased glucose oxidation”. For the same compound, the “Palmitate oxidation in the presence of 5 mM glucose” value with L6 cells [4] is “decreased palmitate oxidation”. In addition, the PKB activity result with PKB is given as “increased PKB activity three-fold”.
